In US5952312A, “NADH and NADPH therapeutic agents for nasal, sublingual, rectal and dermal administration” (Birkmayer Pharmaceuticals, Inc., priority 1998, dated 1999):
Entries after “also recorded” stand apart in the source; their conditions may differ. Structures can show the parent of a compound that is named as a salt.

Tests used:
[1] = system: skin proliferation layer cells; assay type: in vivo; details: topical; for penetration of cutis and entry into cells of the skin proliferation layer: radiolabelled
[2] = system: mitochondria; experiment: stimulation of mitochondrial energy production of skin cells; assay type: cell-based
Excerpt: (§1) The NADH encapsulated by the liposomes is simply applied topically to the skin, and is rubbed into the skin to ensure penetration.

[3] = system: skin cells; experiment: topical application: skin cell life, water uptake, wrinkles; assay type: in vivo
Excerpt: as §1

[4] = dissolution in fluids secreted by the olfactory mucous membrane; assay type: physicochemical; details: fluids of the olfactory epithelium
Procedure: Thus, in accordance with the invention, the NADH may be administered to the nasal cavity of a patient afflicted with Parkinson's disease, Alzheimer's disease or mental depression. The NADH may be applied alone or in combination with other substances, for example, a pharmaceutically acceptable carrier or an agent that facilitates the transfer of the NADH through the nasal mucosa. The NADH is administered intranasally as a powder, spray, gel, ointment, infusion, injection or nose drops. The NADH is delivered to the nasal cavity. It is preferred that the NADH be delivered to the olfactory area in the upper third of the nasal cavity, and particularly to the olfactory neuroepithelium in order to promote transport of the NADH into the peripheral olfactory neurons rather than the capillaries within the respiratory epithelium. It is preferred that the transport of NADH to the brain be by means of the nervous system rather than the circulatory system so that the blood-brain barrier from the bloodstream into the brain is circumvented. However, good results can also be obtained through the bloodstream. […] The NADH may be combined with a carrier or other substance that fosters dissolution within nasal secretions, such as the ganglioside GM-1 or the phospolipid phosphatidylserine, or emulsifiers such as polysorbate 80. […]

[5] = sublingual administration; assay type: in vivo
Excerpt: The NADH is merely placed underneath the tongue and resorbed. Unlike the oral form of NADH described in U.S. Pat. No. 5,332,727, a sublingual form should not be coated with an acid stable protective coating.

[6] = stability against pH; assay type: physicochemical
Excerpt: The NADH may be entrapped in the liposomes in either of two ways. The NADH may be dissolved in the organic solvent together with the lipid(s) and the detergent(s) during the liposome formation. By this procedure, the NADH will be present in the lipid film before the film is solubilized. Alternatively, the NADH may be entrapped by dissolving it in the aqueous solvent (preferably buffered) before the lipid film is exposed to the aqueous solvent. It is important that the aqueous solution of NADH not have a pH below 7 as NADH (and NADPH) are very unstable at pHs below 7. This second method of entrapment (i.e., dissolving NADH in aqueous solution) is preferred.

[7] = shelf/storage stability of pure substance and formulations; assay type: physicochemical; details: protected from light
Excerpt: (§2) Although NADH and/or NADPH may be used by themselves in pure form (they are quite stable in compressed form when protected from light), it is preferred that they be combined in a galenic formulation with a stabilizer, and most preferably with both a stabilizer and a filler. The use of a stabilizer is preferred to prevent oxidation of NADH and NADPH to NAD^+ and […] , respectively. Although, NADH and NADPH are active for the variety of therapeutic effects discussed above, NAD^+ and NADP^+ are ineffective. Therefore, oxidation of NADH and NADPH must be prevented during storage to provide for a reasonable shelf life. […] NADH/NADPH formulations containing such stabilizers are stable for up to two years. Other various stabilizers will become apparent tc those skilled in the art.
In general, a preferred formulation will include about 3 to 10% by weight NADH and/or NADPH; about 1 to 10% by weight stabilizer; and the remainder as filler. Such a formulation, after being compressed into a pill and coated, is stable for over 24 months.

[8] = system: Parkinsonian patients; experiment: motor system in Parkinsonian patients; assay type: in vivo, human; details: sublingual, rectal or nasal; single 5 to 500 mg, daily 5 to 1,500 mg
Procedure: A suitable single dose of NADH and/or NADPH for sublingual, rectal or nasal application is 5 to 500 mg, preferably 25 to 100 mg. A suitable daily dose is 5 to 1,500 mg, preferably 25 to 300 mg.

[9] = system: mitochondrial enzymes; experiment: stimulation of enzymes essential for the energy production of skin cells; assay type: cell-based; details: topical
Excerpt: In accordance with the invention, an NADH and/or NADPH composition is provided for topical application to the skin. […] The enzymes stimulated are principally the mitochondrial enzymes. The NADH and/or NADPH can be incorporated into a skin compatible cream, lotion or cosmetic, or can be combined with micelles of lipophilic substances. Liposomes are preferred vesicles for delivering the greatest dosages of NADH and/or NADPH into the skin.

[10] = system: Parkinson's disease; details: intravenous, patients with Parkinson's disease; cited from earlier work
[11] = after intravenous application; cited from earlier work
[12] = oral form; cited from earlier work
[13] = system: Parkinson's disease; details: earlier patents; cited from earlier work
[14] = system: Alzheimer's disease; details: orally or intravenously; cited from earlier work
[15] = therapeutic activity of the oxidized forms; details: in vivo
Excerpt: as §2

[16] = system: Alzheimer's disease; experiment: nasal administration in Alzheimer's disease; assay type: in vivo, human
Excerpt: (§3) However, I have now discovered that NADH and/or NADPH is also effective when administered topically (as described above for prolonging the life of skin cells and reducing wrinkles), sublingually, rectally and nasally.

[17] = system: Parkinson's disease; experiment: nasal administration in Parkinson's disease; assay type: in vivo, human
Excerpt: as §3

[18] = nasal absorption and transport to the brain; assay type: in vivo; details: inhaled through nasal passages
Excerpt: For a powder spray, the NADH is simply ground into a fine powder and atomized from a spray bottle. Preferably, pure NADH is used for the powder spray, however, it can be used in conjunction with a filler, such as mannitol, as described below.

[19] = rectal administration (suppositories); assay type: in vivo
Procedure: It has also been discovered that good results are obtained when NADH is administered rectally. […] NADH may be administered rectally in the form of suppositories. A suitable suppository formulations are: […]

[20] = compatibility with lactose; assay type: physicochemical; details: lactose as filler
Excerpt: Suitable fillers for use with NADH and NADPH include: mannitol, microcrystalline cellulose, carboxymethyl cellulose; and dibasic calcium phosphate. Other suitable fillers will become apparent to those skilled in the art.

[21] = system: cell degeneration; details: presence of uncoupled mitochondria; cited from earlier work

Compound | absorption by the skin and uptake by the skin cells [1] | entry into cells of the proliferation layer, not encapsulated by liposomes [1] | penetration of cutis and entry into cells of the skin proliferation layer [1] | distribution to mitochondria and stimulation of energy production of the cell [2] | cell life [3] | water uptake by the cell / wrinkle formation [3] | dissolution in nasal secretions [4] | effectiveness when administered sublingually [5] | stability at pH below 7 [6] | stability in pure compressed form [7] | effect on motor system [8] | stimulation of enzymes essential for energy production of skin cells [9] | beneficial effect [10] | duration of beneficial effect [10] | degradation in plasma and blood [11] | absorption by the intestine [12] | usefulness/effectiveness in Parkinson's disease [13] | effectiveness in Alzheimer's disease [14] | therapeutic effectiveness of oxidized forms [15] | further results
NC(=O)C1=CN([C@@H]2O[C@H](COP(=O)(O)OP(=O)(O)OC[C@H]3O[C@@H](n4cnc5c(N)ncnc54)[C@H](OP(=O)(O)O)[C@@H]3O)[C@@H](O)[C@H]2O)C=CC1 [NADPH, nicotinamide adenine phosphate dinucleotide in its reduced form] | absorbed by the skin and penetrate the cutis to be taken up by the skin cells | enters the cells of the proliferation layer | crosses the cutis and enters the cells which comprise the skin proliferation layer | goes to the mitochondria where it stimulates the energy production of the cell | prolonged cell life | increased water uptake by the cell, thereby reducing wrinkle formation | capable of at least partially dissolving in the fluids | effective when administered sublingually | very unstable | quite stable | improve the motor system in Parkinsonian patients | stimulate certain enzymes which are essential for the energy production of the cells | remarkable beneficial effect | at least 24 hours | not rapidly degraded in the plasma and blood | absorbed by the intestine | effective in the treatment of Parkinson's disease; also recorded: useful in the treatment of Parkinson's Disease | effective in the treatment of Parkinson's disease and Alzheimer's disease |  | 
NC(=O)c1ccc[n+]([C@@H]2O[C@H](COP(=O)([O-])OP(=O)(O)OC[C@H]3O[C@@H](n4cnc5c(N)ncnc54)[C@H](O)[C@@H]3O)[C@@H](O)[C@H]2O)c1 [NAD^+] |  |  |  |  |  |  |  |  |  |  |  |  |  |  |  |  |  |  | ineffective | 
NC(=O)c1ccc[n+]([C@@H]2O[C@H](COP(=O)([O-])OP(=O)(O)OC[C@H]3O[C@@H](n4cnc5c(N)ncnc54)[C@H](OP(=O)(O)O)[C@@H]3O)[C@@H](O)[C@H]2O)c1 [NADP^+] |  |  |  |  |  |  |  |  |  |  |  |  |  |  |  |  |  |  | ineffective | 
NC(=O)C1=CN([C@@H]2O[C@H](COP(=O)(O)OP(=O)(O)OC[C@H]3O[C@@H](n4cnc5c(N)ncnc54)[C@H](O)[C@@H]3O)[C@@H](O)[C@H]2O)C=CC1 [NADH, nicotinamide adenine dinucleotide in its reduced form] | absorbed by the skin and penetrate the cutis to be taken up by the skin cells | enters the cells of the proliferation layer | crosses the cutis and enters the cells which comprise the skin proliferation layer | goes to the mitochondria where it stimulates the energy production of the cell | prolonged cell life | increased water uptake by the cell, thereby reducing wrinkle formation | capable of at least partially dissolving in the fluids | effective when administered sublingually | very unstable | quite stable | improve the motor system in Parkinsonian patients | stimulate certain enzymes which are essential for the energy production of the cells | remarkable beneficial effect | at least 24 hours | not rapidly degraded in the plasma and blood | absorbed by the intestine | effective in the treatment of Parkinson's disease; also recorded: useful in the treatment of Parkinson's Disease | effective in the treatment of Parkinson's disease and Alzheimer's disease |  | effectiveness by nasal application in Alzheimer's disease [16]: particularly effective in the treatment of Alzheimer's disease; speed of results, nasal [16]: very fast results; effectiveness by nasal application in Parkinson's disease ([17]; nasal): particularly effective in the treatment of Alzheimer's disease and Parkinson's disease; therapeutic effects, nasal vs oral form ([17]; nasal powder spray): same therapeutic effects as the oral form; nasal absorption and transport to the brain [18]: travels directly to the brain, circumventing the blood-brain barrier; also recorded: absorbed by the mucosa of the nose and travels to the brain through the olfactory neural pathway; speed of results, sublingual [5]: very fast results; results when administered rectally [19]: good results; speed of results, rectal ([19]; compared with nasal or sublingual): not obtained as quickly as in the case of nasal or sublingual administration; reaction with lactose [20]: reacts with NADH
C[C@@H](O)CC(=O)O [D(-)-β-hydroxybutyrate sodium salt] |  |  |  |  |  |  |  |  |  |  |  |  |  |  |  |  |  |  |  | inhibition of cell degeneration [21]: inhibited cell degeneration resulting from the presence of uncoupled mitochondria in a dose dependent manner
